Data published in ChEMBL document CHEMBL1201862, “PubChem BioAssay data set” (2004).
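Cells were grown in 96-well plates and exposed to each compound for 48 hours at five concentrations; endpoints were interpolated linearly between bracketing concentrations, or set to the highest concentration if not reached. GI50: concentration for 50% inhibition of growth.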 The source made the active and inactive calls. Rule as the data show it: active = GI50 up to about 1.1 µM and inactive = higher.

Columns and labels:
Experiment in all cases: DTP human tumour cell line panel, 48 h
SK-OV-3 = test system: SK-OV-3
OVCAR-5 = test system: OVCAR-5
SN12C = test system: SN12C
HOP-62 = test system: HOP-62
Malme-3M = test system: Malme-3M
786-0 = test system: 786-0
COLO 205 = test system: COLO 205
M14 = test system: M14
NCI-H23 = test system: NCI-H23
RXF 393 = test system: RXF 393
SNB-75 = test system: SNB-75
SK-MEL-2 = test system: SK-MEL-2
SR = test system: SR
U-251 = test system: U-251
UO-31 = test system: UO-31
RPMI-8226 = test system: RPMI-8226
UACC-62 = test system: UACC-62
OVCAR-8 = test system: OVCAR-8
BT-549 = test system: BT-549
PC-3 = test system: PC-3
LOX IMVI = test system: LOX IMVI
SNB-19 = test system: SNB-19
K562 = test system: K562
MDA-N = test system: MDA-N
IGROV-1 = test system: IGROV-1
NCI-H226 = test system: NCI-H226
HCT-116 = test system: HCT-116
SW-620 = test system: SW-620
HCT-15 = test system: HCT-15
SF-295 = test system: SF-295
OVCAR-3 = test system: OVCAR-3
CCRF-CEM = test system: CCRF-CEM
T47D = test system: T47D
A549 = test system: A549
UACC-257 = test system: UACC-257
ACHN = test system: ACHN
HL-60 = test system: HL-60
KM12 = test system: KM12
EKVX = test system: EKVX
CAKI-1 = test system: CAKI-1
SK-MEL-5 = test system: SK-MEL-5
NCI-H460 = test system: NCI-H460
DU-145 = test system: DU-145
MCF7 = test system: MCF7
SF-268 = test system: SF-268
Hs-578T = test system: Hs-578T
NCI/ADR-RES = test system: NCI/ADR-RES
SK-MEL-28 = test system: SK-MEL-28
HT-29 = test system: HT-29
MDA-MB-231 = test system: MDA-MB-231
TK-10 = test system: TK-10
HCC 2998 = test system: HCC 2998
MOLT-4 = test system: MOLT-4
SF-539 = test system: SF-539
HOP-92 = test system: HOP-92
OVCAR-4 = test system: OVCAR-4
A498 = test system: A498
MDA-MB-435 = test system: MDA-MB-435
NCI-H522 = test system: NCI-H522

OC1C2CCCCN2C[C@@H](O)[C@H]1O (stereo partly specified)
GI50 (SK-OV-3): > 100 µM (inactive) | GI50 (OVCAR-5): > 100 µM (inactive) | GI50 (SN12C): > 100 µM (inactive) | GI50 (HOP-62): > 100 µM (inactive) | GI50 (Malme-3M): > 100 µM (inactive) | GI50 (786-0): > 100 µM (inactive) | GI50 (COLO 205): > 100 µM (inactive) | GI50 (M14): > 100 µM (inactive) | GI50 (NCI-H23): > 100 µM (inactive) | GI50 (RXF 393): > 100 µM (inactive) | GI50 (SNB-75): > 100 µM (inactive) | GI50 (SK-MEL-2): > 100 µM (inactive) | GI50 (SR): > 100 µM (inactive) | GI50 (U-251): > 100 µM (inactive) | GI50 (UO-31): > 100 µM (inactive) | GI50 (RPMI-8226): > 100 µM (inactive) | GI50 (UACC-62): > 100 µM (inactive) | GI50 (OVCAR-8): > 100 µM (inactive) | GI50 (BT-549): > 100 µM (inactive) | GI50 (PC-3): > 100 µM (inactive) | GI50 (LOX IMVI): > 100 µM (inactive) | GI50 (SNB-19): > 100 µM (inactive) | GI50 (K562): > 100 µM (inactive) | GI50 (MDA-N): > 100 µM (inactive) | GI50 (IGROV-1): > 100 µM (inactive) | GI50 (NCI-H226): > 100 µM (inactive) | GI50 (HCT-116): > 100 µM (inactive) | GI50 (SW-620): > 100 µM (inactive) | GI50 (HCT-15): > 100 µM | GI50 (SF-295): > 100 µM (inactive) | GI50 (OVCAR-3): > 100 µM (inactive) | GI50 (CCRF-CEM): > 100 µM (inactive) | GI50 (T47D): > 100 µM (inactive) | GI50 (A549): > 100 µM (inactive) | GI50 (UACC-257): > 100 µM (inactive) | GI50 (ACHN): > 100 µM (inactive) | GI50 (HL-60): > 100 µM (inactive) | GI50 (KM12): > 100 µM (inactive) | GI50 (EKVX): > 100 µM (inactive) | GI50 (CAKI-1): > 100 µM (inactive) | GI50 (SK-MEL-5): > 100 µM (inactive) | GI50 (NCI-H460): > 100 µM (inactive) | GI50 (DU-145): > 100 µM (inactive) | GI50 (MCF7): > 100 µM (inactive) | GI50 (SF-268): > 100 µM (inactive) | GI50 (Hs-578T): > 100 µM (inactive) | GI50 (NCI/ADR-RES): > 100 µM (inactive) | GI50 (SK-MEL-28): > 100 µM (inactive) | GI50 (HT-29): > 100 µM (inactive) | GI50 (MDA-MB-231): > 100 µM (inactive) | GI50 (TK-10): > 100 µM (inactive) | GI50 (HCC 2998): > 100 µM (inactive) | GI50 (MOLT-4): > 100 µM (inactive) | GI50 (SF-539): > 100 µM (inactive) | GI50 (HOP-92): > 100 µM (inactive) | GI50 (OVCAR-4): > 100 µM (inactive) | GI50 (A498): > 100 µM (inactive) | GI50 (MDA-MB-435): > 100 µM (inactive) | GI50 (NCI-H522): 76.6 µM (inactive)

CCN(CC)CCSc1c2cc(OC)ccc2nc2ccc(OC)cc12
GI50 (SK-OV-3): 25.1 µM (inactive) | GI50 (OVCAR-5): 15.8 µM (inactive) | GI50 (SN12C): 3.03 µM (inactive) | GI50 (HOP-62): 16.7 µM (inactive) | GI50 (Malme-3M): 2.75 µM (inactive) | GI50 (786-0): 1.85 µM (inactive) | GI50 (COLO 205): 1.98 µM (inactive) | GI50 (M14): 6.73 µM (inactive) | GI50 (NCI-H23): 3.3 µM (inactive) | GI50 (RXF 393): 7.38 µM (inactive) | GI50 (SNB-75): 14.4 µM (inactive) | GI50 (SK-MEL-2): 17 µM (inactive) | GI50 (SR): 2.43 µM (inactive) | GI50 (U-251): 7.94 µM (inactive) | GI50 (UO-31): 2.37 µM (inactive) | GI50 (RPMI-8226): 2.4 µM (inactive) | GI50 (UACC-62): 14.3 µM (inactive) | GI50 (OVCAR-8): 3.12 µM (inactive) | GI50 (BT-549): 5.69 µM (inactive) | GI50 (PC-3): 3.56 µM (inactive) | GI50 (LOX IMVI): 2.17 µM (inactive) | GI50 (SNB-19): 12.1 µM (inactive) | GI50 (MDA-N): 4.39 µM (inactive) | GI50 (IGROV-1): 1.95 µM (inactive) | GI50 (NCI-H226): 16.2 µM (inactive) | GI50 (HCT-116): 2.26 µM (inactive) | GI50 (SW-620): 2.56 µM (inactive) | GI50 (HCT-15): 2.86 µM | GI50 (SF-295): 19.4 µM (inactive) | GI50 (OVCAR-3): 2.59 µM (inactive) | GI50 (CCRF-CEM): 2.86 µM (inactive) | GI50 (T47D): 1.93 µM (inactive) | GI50 (A549): 16.1 µM (inactive) | GI50 (UACC-257): 4.35 µM (inactive) | GI50 (ACHN): 2.21 µM (inactive) | GI50 (HL-60): 5.3 µM (inactive) | GI50 (KM12): 5.09 µM (inactive) | GI50 (EKVX): 9.59 µM (inactive) | GI50 (CAKI-1): 7.53 µM (inactive) | GI50 (SK-MEL-5): 13.6 µM (inactive) | GI50 (NCI-H460): 9.75 µM (inactive) | GI50 (DU-145): 2.05 µM (inactive) | GI50 (MCF7): 2.51 µM (inactive) | GI50 (SF-268): 3.08 µM (inactive) | GI50 (Hs-578T): 1.68 µM (inactive) | GI50 (NCI/ADR-RES): 7.67 µM (inactive) | GI50 (SK-MEL-28): 10.3 µM (inactive) | GI50 (HT-29): 2.05 µM (inactive) | GI50 (MDA-MB-231): 6.53 µM (inactive) | GI50 (TK-10): 4.65 µM (inactive) | GI50 (HCC 2998): 13.5 µM (inactive) | GI50 (MOLT-4): 2.29 µM (inactive) | GI50 (SF-539): 2.45 µM (inactive) | GI50 (HOP-92): 2.19 µM (inactive) | GI50 (OVCAR-4): 6.03 µM (inactive) | GI50 (A498): 23 µM (inactive) | GI50 (MDA-MB-435): 7.03 µM (inactive) | GI50 (NCI-H522): 1.59 µM (inactive)

CCOC(=O)C1CC(C(=O)c2ccccc2)N2c3ccccc3-c3ccccc3C12 (stereo unspecified)
GI50 (SK-OV-3): > 100 µM (inactive) | GI50 (OVCAR-5): > 100 µM (inactive) | GI50 (SN12C): > 100 µM (inactive) | GI50 (HOP-62): 97.1 µM (inactive) | GI50 (Malme-3M): > 100 µM (inactive) | GI50 (786-0): 40.1 µM (inactive) | GI50 (COLO 205): 30.2 µM (inactive) | GI50 (M14): 26.4 µM (inactive) | GI50 (NCI-H23): > 100 µM (inactive) | GI50 (RXF 393): 29.9 µM (inactive) | GI50 (SNB-75): 28.1 µM (inactive) | GI50 (SK-MEL-2): > 100 µM (inactive) | GI50 (SR): 19.2 µM (inactive) | GI50 (U-251): 30.3 µM (inactive) | GI50 (UO-31): 32.7 µM (inactive) | GI50 (RPMI-8226): 11.9 µM (inactive) | GI50 (UACC-62): 46.7 µM (inactive) | GI50 (OVCAR-8): 33.8 µM (inactive) | GI50 (BT-549): 57.3 µM (inactive) | GI50 (PC-3): 40.6 µM (inactive) | GI50 (LOX IMVI): 65 µM (inactive) | GI50 (SNB-19): > 100 µM (inactive) | GI50 (K562): 31.6 µM (inactive) | GI50 (MDA-N): > 100 µM (inactive) | GI50 (IGROV-1): 37.2 µM (inactive) | GI50 (NCI-H226): > 100 µM (inactive) | GI50 (HCT-116): 30.8 µM (inactive) | GI50 (SW-620): > 100 µM (inactive) | GI50 (HCT-15): > 100 µM | GI50 (SF-295): 82.2 µM (inactive) | GI50 (OVCAR-3): 30 µM (inactive) | GI50 (CCRF-CEM): 28.1 µM (inactive) | GI50 (T47D): 23.6 µM (inactive) | GI50 (A549): 73.6 µM (inactive) | GI50 (UACC-257): > 100 µM (inactive) | GI50 (ACHN): > 100 µM (inactive) | GI50 (HL-60): 10.7 µM (inactive) | GI50 (KM12): 48.6 µM (inactive) | GI50 (EKVX): > 100 µM (inactive) | GI50 (CAKI-1): > 100 µM (inactive) | GI50 (SK-MEL-5): 45.1 µM (inactive) | GI50 (NCI-H460): > 100 µM (inactive) | GI50 (DU-145): > 100 µM (inactive) | GI50 (MCF7): > 100 µM (inactive) | GI50 (SF-268): 74.6 µM (inactive) | GI50 (Hs-578T): 25.9 µM (inactive) | GI50 (NCI/ADR-RES): 43.2 µM (inactive) | GI50 (SK-MEL-28): > 100 µM (inactive) | GI50 (HT-29): 78.2 µM (inactive) | GI50 (MDA-MB-231): 41.7 µM (inactive) | GI50 (TK-10): > 100 µM (inactive) | GI50 (HCC 2998): > 100 µM (inactive) | GI50 (MOLT-4): 52 µM (inactive) | GI50 (SF-539): > 100 µM (inactive) | GI50 (HOP-92): 52.8 µM (inactive) | GI50 (OVCAR-4): 26.4 µM (inactive) | GI50 (A498): > 100 µM (inactive) | GI50 (MDA-MB-435): 86.7 µM (inactive) | GI50 (NCI-H522): 50.9 µM (inactive)
